# Test results: US5364871A, “New thiazole derivatives, and pharmaceutical composition comprising the same” (Fujisawa Pharmaceutical Co., Ltd., priority 1989, dated 1994)
# Experiments:
# [1] = test system: Gastric secretion; assay: Test A: Gastric secretion in Heidenhain pouch dogs; assay type: in vivo; settings: total acid output, tetragastrin (10 μg/kg/hr) stimulated; 3.2 mg/kg orally; Beagle dogs
# Method: Test A (Gastric secretion in Heidenhain pouch dogs):
# Beagle dogs, weighing about 8-13 kg, were used for the study on gastric secretion. The animals were surgically provided with a vagally denervated Heidenhain pouch. One month or more later, the dogs were fasted overnight. Gastric secretion was stimulated by an intravenous infusion of tetragastrin (10 μg/kg/hr). Gastric samples were collected at 15 min intervals. After its volume was almost constant, test compound (3.2 mg/kg) suspended in 0.1% methyl cellulose solution was administered orally. Acid concentration was determined by titrating an aliquot to pH 7.0 with 0.1N sodium hydroxide solution using automatic titration (Hiranuma RAT-11 Type). Total acid output was calculated by multiplying total volume of gastric samples by acid concentration, and percentage change of total acid output was calculated by comparing with predosing value of test compound.
# [2] = test system: Gastric secretion; assay: Test C: Gastric secretion from lumen perfused stomach in anesthetized rats; assay type: in vivo, Male Sprague-Dawley rats; settings: maximal inhibition of acid output, histamine (3 mg/kg/hr) stimulated, 1 mg/kg intravenously
# Method: Test C (Gastric secretion from lumen perfused stomach
# Male Sprague-Dawley rats weighing about 250 g were used. Rats were deprived of food but allowed free access to water for 24 hours. The animals were anesthetized with 1.25 g/kg urethane intraperitoneally. The abdomen was opened and the gastric lumen was perfured with saline throughout the experiment. The perfusate was titrated by an antotitrator with 25 mM sodium hydroxide as a titrant. Gastric secretion was stimulated by intravenous infusion with histamine (3 mg/kg/hr). After reaching plateau, test compound (1 mg/kg) was given intravenously. Drug effect was expressed as maximal inhibition by acid output.
# [3] = test system: HCl-aspirin ulcer; assay: Test E: Inhibition of HCl-aspirin ulcer; assay type: in vivo, male Sprague-Dawley rats; settings: length of ulcers; 32 mg/kg orally 30 minutes before aspirin (200 mg/kg in 0.2N HCl); rats
# Method: Test E (Inhibition of HCl-aspirin ulcer):
# Seven male Sprague-Dawley rats, aged 6 weeks and weighing about 200 g were used per group for the study on HCl-aspirin ulcer after the fast for 24 hours. Each of the test compounds (32 mg/kg) suspended in 0.1% methylcellulose solution was administered orally 30 minutes before aspirin administration. Aspirin, suspended in 0.1% methylcellulose solution containing 0.2N HCl, was administered orally at a dose of 200 mg/kg/10 ml. One hour later, the animals were sacrificed and their stomachs were removed. The stomach was then fixed with 2% formalin. The length of ulcers was measured for each animal, and percentage of inhibition was calculated by comparing the mean length of ulcers (mm) in the test animals with that in the control animals.
# [4] = test system: Helicobacter pyloridis 8008; assay: Test D: Anti-microbial activity (agar dilution method); assay type: cell-based; settings: 72 h, Brucella agar plus 5% lysed horse blood, 37° C., 3 days, 10% CO2
# Method: Test D (Anti-microbial activity):
# In vitro antimicrobial activity was determined by the agar dilution method. Test strain was precultured in Brucella broth containing 5% horse serum at 37° C. for 3 days 10^4 cfu were inoculated with a multipoint replicater onto Brucella agar plus 5% lysed horse blood plate containing serial 2-fold dilutions of each drug at 37° C. for 3 days. Incubation was carried out in an atmosphere of 10% CO2. MIC was read after incubation as the lowest drug concentration that inhibited macroscopic colonial growth.
# [5] = test system: stress ulcer; assay: Test B: Inhibition of stress ulcer; assay type: in vivo, male Sprague-Dawley rats; settings: area of ulcers, restraint and water immersion 7 hours; 32 mg/kg orally; rats
# Method: Test B (Inhibition of stress ulcer):
# Five male Sprague-Dawley rats, aged 7 weeks and weighing about 200 g were used per group for the study on stress ulcer after the fast for 24 hours. Each animal was immobilized in a restrain cage and immersed to a level of the xiphoid in a water bath kept 22° C. Each of the test compounds (32 mg/kg) suspended in 0.1% methylcellulose solution was administered orally just before the immobilization. Seven hours later, the animals were sacrificed and their stomachs were removed. The stomach was then fixed with 2% formalin. The area of ulcers was measured for each animal, and percentage of inhibition was calculated by comparing the mean area of ulcers (mm^2) in the test animals with that in the control animals.
structure (smiles),measurement,setting,value
CC(=O)NCc1cccc(-c2csc(N=C(N)N)n2)n1 [(a)],Inhibition (%),[1],95%
NC(=O)NCc1nc(-c2csc(N=C(N)N)n2)cs1 [(c)],Inhibition (%),[2],97%
CCCCNC(N)=Nc1nc(-c2cccc(CNC(C)=O)n2)cs1 [(e)],Inhibition (%),[3],98.1%
same,MIC,[4],0.78 µg/mL
CCOC(=O)c1nc(-c2csc(N=C(N)N)n2)cs1 [(d)],Inhibition (%),[5],93.9%
NC(=O)NCc1cccc(-c2csc(N=C(N)N)n2)n1 [(b)],Inhibition (%),[2],98%
